We go through 15 compounds from ChEMBL document CHEMBL1140032, “Furoxan-, alkylnitrate-derivatives and related compounds as anti-trypanosomatid agents: mechanism of action studies” (2008).

In assay [1] the test system is Trypanosoma cruzi. Put plainly: Antitrypanosomal activity against Trypanosoma cruzi Tulahuen 2 assessed as inhibition of epimastigotes growth after 5 days by MTT assay relative to control. Format: functional. The conditions noted are these: Tulahuen 2, 120 h, read-out: ID50 (the source's name). (Formazan colour is commonly taken as a measure of viable cells.)
In assay [2] the test system is Trypanosoma cruzi. In words: Antitrypanosomal activity against Trypanosoma cruzi CL Brener assessed as parasite viability after 5 days by MTT assay. It counts as functional. Particulars: 120 h, read-out: ID50 (the source's name).
For assay [3], the system named is Trypanosoma cruzi. Put plainly: Antitrypanosomal activity against Trypanosoma cruzi Y assessed as parasite viability after 5 days by MTT assay. Format: functional. Particulars: 120 h, read-out: ID50 (the source's name).
In the next assay the test system is Leishmania braziliensis. In words: Antileishmanial activity against Leishmania braziliensis MHOM/BR/00/LTB300 assessed as parasite viability after 5 days by MTT assay. Format: functional. The conditions noted are these: 120 h, read-out: ID50 (the source's name).
Assay [4] concerns Leishmania pifanoi. In words: Antileishmanial activity against Leishmania pifanoi MHOM/VE/57/LV135 assessed as parasite viability after 5 days by MTT assay. Format: functional. The conditions noted are these: 120 h, read-out: ID50 (the source's name).
A short description of assay [5]: Inhibition of nitric oxide production by Griess assay. It counts as functional. Set-up: concentration or dose not given beside the values. The conditions noted are these: dose or concentration not given here.
Assay [6] concerns Trypanosoma cruzi. Put plainly: Inhibition of Trypanosoma cruzi Y mitochondrial dehydrogenase activity by MTT assay relative to control.
In assay [7] the test system is Trypanosoma cruzi. In words: Antitrypanosomal activity against Trypanosoma cruzi CL Brener assessed as lysis of trypomastigotes at 25 uM after 2 hrs relative to control. Format: functional.
Assay [8] relates to Trypanosoma cruzi. In words: Antitrypanosomal activity against Trypanosoma cruzi CL Brener assessed as lysis of trypomastigotes at 25 uM after 19 hrs relative to control. It counts as functional.
The subject of assay [9] is Trypanosoma cruzi. Put plainly: Antitrypanosomal activity against Trypanosoma cruzi CL Brener assessed as lysis of trypomastigotes at 50 uM after 2 hrs relative to control. It counts as functional.
Assay [10] concerns Trypanosoma cruzi. Put plainly: Antitrypanosomal activity against Trypanosoma cruzi CL Brener assessed as lysis of trypomastigotes at 50 uM after 19 hrs relative to control. Format: functional.
Assay [11] has as its system Leishmania pifanoi. Put plainly: Antileishmanial activity against Leishmania pifanoi MHOM/VE/57/LV135 at 5.0 uM after 5 days assessed as parasite viability by MTT assay. Format: functional. Particulars: 120 h, read-out: GI.
Assay [12] deals with Trypanosoma cruzi. In words: Antitrypanosomal activity against Trypanosoma cruzi CL Brener in Vero cells assessed as endocytic index at 2.5 uM. Format: functional.
Assay [13] has as its system Trypanosoma cruzi. Put plainly: Antitrypanosomal activity against Trypanosoma cruzi CL Brener assessed as lysis of trypomastigotes at 10 uM after 2 hrs relative to control. It counts as functional.
In assay [14] the test system is Trypanosoma cruzi. In words: Antitrypanosomal activity against Trypanosoma cruzi CL Brener clone assessed as lysis of trypomastigotes at 10 uM after 3 hrs relative to control. Format: functional.
Assay [15] concerns Trypanosoma cruzi. In words: Antitrypanosomal activity against Trypanosoma cruzi CL Brener clone assessed as lysis of trypomastigotes at 10 uM after 26 hrs relative to control. Format: functional.
Assay [16] has as its system Trypanosoma cruzi. In words: Antitrypanosomal activity against Trypanosoma cruzi CL Brener in Vero cells assessed as infection. It counts as functional.
Assay [17] deals with Trypanosoma cruzi. In words: Antitrypanosomal activity against Trypanosoma cruzi CL Brener in Vero cells assessed as number of amastigote infected. Format: functional.

The source made the active and inactive calls. The rule behind the calls is not given here.

Regarding `CCOCCS(=O)(=O)c1nonc1-c1ccccc1`, the IC50 in the assay with Trypanosoma cruzi [1] was 7.5 µM; in the assay with Trypanosoma cruzi [2] it was over 50 µM; in the assay on Trypanosoma cruzi [3], over 50 µM; in the assay on Leishmania braziliensis, over 50 µM; in the assay with Leishmania pifanoi [4], over 50 µM.
The inhibition is the relative decrease from the control value, in per cent. `COc1ccccc1NCCS(=O)(=O)c1c(-c2ccccc2)no[n+]1[O-]`: the inhibition in assay [5] is 20.8%. In addition, the IC50 with Trypanosoma cruzi [1] came out at 7.5 µM; with Trypanosoma cruzi [2], 5 µM; in the assay on Trypanosoma cruzi [3], 9.2 µM; in the assay with Leishmania braziliensis, 13.7 µM; with Leishmania pifanoi [4] it was 6.5 µM.
Regarding `O=S(=O)(c1ccccc1)c1nonc1-c1ccccc1`, the IC50 in the assay on Trypanosoma cruzi [1] is 10 µM; with Trypanosoma cruzi [2], over 50 µM; in the assay on Trypanosoma cruzi [3] it was over 50 µM; in the assay with Leishmania braziliensis, over 50 µM; in the assay on Leishmania pifanoi [4], over 50 µM.
On to `C=CS(=O)(=O)c1c(-c2ccccc2)no[n+]1[O-]`, for which the outcome in the assay with Trypanosoma cruzi [6] was Active. The IC50 in the assay on Trypanosoma cruzi [1] is 6.5 µM; with Trypanosoma cruzi [2] it was 2.6 µM; with Trypanosoma cruzi [3], 6.8 µM; in the assay with Leishmania braziliensis, 10 µM; in the assay on Leishmania pifanoi [4] it was 26.7 µM. Further, the Activity turned out to be 33% in the assay with Trypanosoma cruzi [7], 100% in the assay with Trypanosoma cruzi [8], 62% with Trypanosoma cruzi [9] and 100% in the assay on Trypanosoma cruzi [10].
In the case of `O=S(=O)(c1ccccc1)c1no[n+]([O-])c1-c1ccccc1`, the inhibition in assay [5] is under 1%. Moreover, the IC50 is 7.5 µM in the assay with Trypanosoma cruzi [1]; 9.1 µM in the assay with Trypanosoma cruzi [2]; over 50 µM in the assay on Trypanosoma cruzi [3]; 20.2 µM in the assay with Leishmania braziliensis; 20.5 µM in the assay with Leishmania pifanoi [4].
Turning to `C=CS(=O)(=O)c1no[n+]([O-])c1-c1ccccc1`, the IC50 with Trypanosoma cruzi [1] is 5.5 µM; with Trypanosoma cruzi [2], 8.2 µM; with Trypanosoma cruzi [3] it was 11.1 µM; in the assay on Leishmania braziliensis, 39.1 µM; in the assay with Leishmania pifanoi [4] it was over 50 µM.
For the compound `O=S(=O)(c1ccccc1)c1c(-c2ccccc2)no[n+]1[O-]`, the inhibition in assay [5] was found to be 10.3%. In addition, the IC50 in the assay with Trypanosoma cruzi [1] is 5 µM; in the assay with Trypanosoma cruzi [2], 4.2 µM; in the assay on Trypanosoma cruzi [3], 4.3 µM; in the assay with Leishmania braziliensis, 1.6 µM; with Leishmania pifanoi [4], 3.8 µM.
For `CCCCCCCCCCCCCCCCOP(=O)([O-])OCC[N+](C)(C)C` [MILTEFOSINE], in the assay with Leishmania braziliensis, the IC50 was 9 µM. In the assay on Leishmania pifanoi [11], the inhibition of growth at 5 µM came out at 85.5%.
In the case of `CCOCCS(=O)(=O)c1no[n+]([O-])c1-c1ccccc1`, the inhibition in assay [5] is under 1%. Besides, the IC50 in the assay on Trypanosoma cruzi [1] is 17 µM; with Trypanosoma cruzi [2], over 50 µM; in the assay with Trypanosoma cruzi [3] it was over 50 µM; with Leishmania braziliensis it was over 50 µM; in the assay with Leishmania pifanoi [4] it was over 50 µM.
Consider `CCSCCS(=O)(=O)c1c(-c2ccccc2)no[n+]1[O-]`, for which the inhibition in [5] turned out to be 10%. For the same compound, the IC50 with Trypanosoma cruzi [1] amounted to 7.5 µM; in the assay with Trypanosoma cruzi [2], 0.9 µM; with Trypanosoma cruzi [3] it was 3.9 µM; in the assay on Leishmania braziliensis, 4 µM; with Leishmania pifanoi [4], 4.6 µM.
Compound `CCOCCS(=O)(=O)c1c(-c2ccccc2)no[n+]1[O-]` returned an inhibition in assay [5] of 10%. In the assay with Trypanosoma cruzi [6], the result was Active. Further, the IC50 was determined as 10 µM in the assay on Trypanosoma cruzi [1]; 1.5 µM in the assay with Trypanosoma cruzi [2]; 3.4 µM in the assay on Trypanosoma cruzi [3]; 4.1 µM with Leishmania braziliensis; 4.2 µM with Leishmania pifanoi [4]. The Activity is reported as 100% with Trypanosoma cruzi [8], 68% with Trypanosoma cruzi [9] and 100% with Trypanosoma cruzi [10].
As to `NC(=O)CS(=O)(=O)c1c(-c2ccccc2)no[n+]1[O-]`, the Activity was 10.1 in the assay with Trypanosoma cruzi [12]; 100% with Trypanosoma cruzi [8]; 100% in the assay with Trypanosoma cruzi [10]; 0% in the assay with Trypanosoma cruzi [13]; 5% in the assay with Trypanosoma cruzi [14]; 100% in the assay on Trypanosoma cruzi [15]. The Activity in the assay on Trypanosoma cruzi [16] is 6.3%; in the assay with Trypanosoma cruzi [17], 1.6. The result with Trypanosoma cruzi [6] was Active. The IC50 with Trypanosoma cruzi [1] was 10 µM; in the assay with Trypanosoma cruzi [2], 3.7 µM; with Trypanosoma cruzi [3], 6 µM; in the assay on Leishmania braziliensis it was 14.3 µM; in the assay on Leishmania pifanoi [4], over 50 µM.
The compound `CCSCCS(=O)(=O)c1no[n+]([O-])c1-c1ccccc1` registered an inhibition in [5] of under 1%. In addition, the IC50 in the assay with Trypanosoma cruzi [1] is 5 µM; with Trypanosoma cruzi [2], 37.1 µM; with Trypanosoma cruzi [3] it was 6 µM; in the assay with Leishmania braziliensis it was over 50 µM; in the assay with Leishmania pifanoi [4], over 50 µM.
`C=CS(=O)(=O)c1nonc1-c1ccccc1`: the IC50 in the assay with Trypanosoma cruzi [1] is 6.5 µM; in the assay on Trypanosoma cruzi [2] it was 22.2 µM; in the assay on Trypanosoma cruzi [3], 23.5 µM; in the assay with Leishmania braziliensis it was 8 µM; in the assay on Leishmania pifanoi [4], 20.4 µM.
`COc1ccccc1NCCS(=O)(=O)c1no[n+]([O-])c1-c1ccccc1` came in with an inhibition in [5] of under 1%. Besides, the IC50 worked out at 8 µM in the assay with Trypanosoma cruzi [1]; 7.2 µM in the assay with Trypanosoma cruzi [2]; 26.2 µM with Trypanosoma cruzi [3]; 9.9 µM with Leishmania braziliensis; 33.8 µM with Leishmania pifanoi [4].
